# Experimental data taken from the supplement of paper PMC11061612.
# Experiments:
# Assay in all cases: Bliss excess, mean over the matrix (fraction); higher = more synergy
# [1] = tested on: CADO-ES1 (Ewing's Sarcoma)
# Method in brief: (§1)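 Bliss excess equals the observed combination effect minus the expected value EA + EB − EA·EB, where EA and EB are the effects of each agent alone. Combination Emax is the second-highest inhibition within the matrix. Inhibition was scaled from CellTiter-Glo 2.0 luminescence, with 0 set by vehicle wells and 1 by blank wells, after 72 hours of two-drug dosing of cells plated in 1536-well plates.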
# [2] = tested on: COLO-668 (Small Cell Lung Carcinoma)
# Method in brief: as §1
# [3] = tested on: EFO-21 (Ovarian Carcinoma)
# Method in brief: as §1
# [4] = tested on: G-401 (Other Solid Carcinomas)
# Method in brief: as §1
# [5] = tested on: HAL-01 (B-Lymphoblastic Leukemia)
# Method in brief: as §1
# [6] = tested on: HCC1937 (Breast Carcinoma)
# Method in brief: as §1
# [7] = tested on: KMRC-1 (Kidney Carcinoma)
# Method in brief: as §1
# [8] = tested on: KOPN-8 (B-Lymphoblastic Leukemia)
# Method in brief: as §1
# [9] = tested on: LC-1-sq (Squamous Cell Lung Carcinoma)
# Method in brief: as §1
# [10] = tested on: ME-180 (Cervical Carcinoma)
# Method in brief: as §1
# [11] = tested on: ML-2 (Acute Myeloid Leukemia)
# Method in brief: as §1
# [12] = tested on: MOLT-4 (T-Lymphoblastic Leukemia)
# Method in brief: as §1
# [13] = tested on: MV-4-11 (Acute Myeloid Leukemia)
# Method in brief: as §1
# [14] = tested on: NCI-H1355 (Lung Adenocarcinoma)
# Method in brief: as §1
# [15] = tested on: NCI-H1838 (Lung Adenocarcinoma)
# Method in brief: as §1
# [16] = tested on: NCI-H1993 (Lung Adenocarcinoma)
# Method in brief: as §1
# [17] = tested on: NCI-H650 (Lung Adenocarcinoma)
# Method in brief: as §1
# [18] = tested on: OACM5-1 (Esophageal Adenocarcinoma)
# Method in brief: as §1
# [19] = tested on: SNU-387 (Hepatocellular Carcinoma)
# Method in brief: as §1
# [20] = tested on: SW982 (Other Solid Carcinomas)
# Method in brief: as §1
SMILES,Bliss excess [1],Bliss excess [2],Bliss excess [3],Bliss excess [4],Bliss excess [5],Bliss excess [6],Bliss excess [7],Bliss excess [8],Bliss excess [9],Bliss excess [10],Bliss excess [11],Bliss excess [12],Bliss excess [13],Bliss excess [14],Bliss excess [15],Bliss excess [16],Bliss excess [17],Bliss excess [18],Bliss excess [19],Bliss excess [20]
"COc1nnc2ccc(N3CCC(c4ccc(OCCN5CCN(C)C(=O)[C@H]5C)cc4)CC3)nn12 [AZD5153] + Cn1cnc2c(F)c(Nc3ccc(Br)cc3Cl)c(C(=O)NOCCO)cc21 [Selumetinib] (first compound max 1 µM, 7x7, partner max 10 µM)",-0.0469,0.236,-0.0593,-0.0761,0.0347,-0.0523,-0.0365,0.114,0.0073,-0.019,0.075,-0.0161,0.0309,0.0212,0.03,-0.0228,0.0339,-0.0306,0.0012,-0.0039
"CC1(C)CCC(CN2CCN(c3ccc(C(=O)NS(=O)(=O)c4ccc(NCC5CCOCC5)c([N+](=O)[O-])c4)c(Oc4cnc5[nH]ccc5c4)c3)CC2)=C(c2ccc(Cl)cc2)C1 [Venetoclax] + C[C@@H]1COCCN1C2=NC(=NC(=C2)C3(CC3)[S@](=N)(=O)C)C4=C5C=CNC5=NC=C4 [AZD6738] (first compound max 1 µM, 7x7, partner max 10 µM)",0.0118,0.032,-0.0351,-0.0944,0.106,-0.0587,-0.0365,0.0289,-0.0095,0.0165,0.0694,0.0382,-0.006,-0.0593,-0.0508,-0.0366,-0.0839,0.0115,-0.0363,-0.031
"COc1cccc(OCCCN)c1-c1cc(Nc2cnc(C#N)cn2)n[nH]1 [Prexasertib] + C=CCn1c(=O)c2cnc(Nc3ccc(N4CCN(C)CC4)cc3)nc2n1-c1cccc(C(C)(C)O)n1 [AZD1775] (first compound max 1 µM, partner max 1 µM)",0.0737,0.0952,-0.0075,0.0612,0.0697,-0.0247,0.0366,0.0438,0.0581,0.0017,0.045,0.0873,0.0775,-0.0039,-0.131,0.0596,0.0382,0.105,0.081,-0.0341
"CC1(C)CCC(CN2CCN(c3ccc(C(=O)NS(=O)(=O)c4ccc(NCC5CCOCC5)c([N+](=O)[O-])c4)c(Oc4cnc5[nH]ccc5c4)c3)CC2)=C(c2ccc(Cl)cc2)C1 [Venetoclax] + CCN(CCO)CCCOc1ccc2c(Nc3cc(CC(=O)Nc4cccc(F)c4)[nH]n3)ncnc2c1 [AZD2811] (first compound max 1 µM, 7x7, partner max 1 µM)",0.0054,0.0051,-0.0263,-0.0473,-0.0133,-0.0394,-0.0456,0.0169,-0.0099,0.0083,0.0167,-0.0368,0.0071,-0.0219,0.0204,-0.0002,-0.0114,-0.0406,-0.0422,-0.0257
"CC(=O)c1c(C)c2cnc(Nc3ccc(N4CCNCC4)cn3)nc2n(C2CCCC2)c1=O [Palbociclib] + Cn1cnc2c(F)c(Nc3ccc(Br)cc3Cl)c(C(=O)NOCCO)cc21 [Selumetinib] (first compound max 10 µM, 7x7, partner max 10 µM)",-0.13,0.0008,-0.0531,-0.0428,0.0297,-0.0788,-0.0461,-0.0208,-0.0004,0.0042,0.0685,-0.012,0.0537,0.0542,-0.0003,0.0904,0.0058,-0.0247,-0.0425,-0.058
"Cn1cnc2c(F)c(Nc3ccc(Br)cc3Cl)c(C(=O)NOCCO)cc21 [Selumetinib] + C[C@@H]1COCCN1C2=NC(=NC(=C2)C3(CC3)[S@](=N)(=O)C)C4=C5C=CNC5=NC=C4 [AZD6738] (first compound max 10 µM, 7x7, partner max 10 µM)",-0.0031,0.038,-0.0192,0.0257,-0.0541,0.0414,-0.0303,-0.154,0.0238,-0.0115,-0.0373,-0.0181,-0.0369,-0.0213,-0.101,-0.0274,0.0926,-0.0096,-0.0126,-0.0499
"Cn1cnc2c(F)c(Nc3ccc(Br)cc3Cl)c(C(=O)NOCCO)cc21 [Selumetinib] + C=CCn1c(=O)c2cnc(Nc3ccc(N4CCN(C)CC4)cc3)nc2n1-c1cccc(C(C)(C)O)n1 [AZD1775] (first compound max 10 µM, partner max 1 µM)",-0.114,-0.0563,-0.0834,-0.0483,0.0056,-0.0357,-0.0061,0.0681,-0.095,-0.071,-0.0186,-0.02,0.0249,-0.0037,-0.0506,0.0225,0.0099,-0.0964,-0.0766,-0.0112
